From publication PMC11255104 (Food Chemistry: X, 2024)

Experiment: Pharmacokinetic study in rats after oral administration of MOL extract
Assay type: in vivo, Sprague-Dawley rats
[1] = male, Sprague-Dawley, rat, plasma, po, 30 g/kg

| Cmax [1] | Tmax [1] | time over which the substance could be detected in plasma (rat plasma, oral MOL extract 30 g/kg) | half-life [1] | Compound |
| --- | --- | --- | --- | --- |
| 643 ng/mL | 0.24 h | ≤ 12 h | – | O=c1c(O[C@@H]2O[C@H](CO)[C@@H](O)[C@H](O)[C@H]2O)c(-c2ccc(O)c(O)c2)oc2cc(O)cc(O)c12 [Isoquercitrin] |
| – | – | – | 5.06 h | O=C(/C=C/c1ccc(O)c(O)c1)O[C@@H]1C[C@](O)(C(=O)O)C[C@@H](O)[C@H]1O [Chlorogenic acid] |
